Assay results published in PubChem BioAssay (NCI).
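Interpolation was linear, between the two tested concentrations surrounding the appropriate level; five concentrations were tested over 48 hours in 96-well plates. GI50: concentration for 50% inhibition of growth. Definition used: TGI = concentration required for complete inhibition of growth.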 Where a SMILES comes first, the peptide text is derived from it. [ ]: non-standard residue; d: D form. The star is where a group is joined. Decanoyl = CCCCCCCCCC(=O)*; Leu(ol) = CC(C)C[C@H](N)CO; Iva = CC[C@](C)(N)C(=O)O; Aib = CC(C)(N)C(=O)O

Assays:
Experiment in all cases: DTP human tumour cell line panel, 48 h
SN12C renal = tested on: SN12C renal
T-47D breast = tested on: T-47D breast
HOP-62 NSCLC = tested on: HOP-62 NSCLC
U251 CNS = tested on: U251 CNS
NCI-H226 lung = tested on: NCI-H226 lung
K-562 leukemia = tested on: K-562 leukemia
MOLT-4 leukemia = tested on: MOLT-4 leukemia
HL-60(TB) leukemia = tested on: HL-60(TB) leukemia
MCF7 breast = tested on: MCF7 breast
CCRF-CEM leukemia = tested on: CCRF-CEM leukemia
HT29 colon = tested on: HT29 colon
HOP-92 NSCLC = tested on: HOP-92 NSCLC
NCI-H23 lung = tested on: NCI-H23 lung
DU-145 prostate = tested on: DU-145 prostate
KM12 colon = tested on: KM12 colon
OVCAR-3 ovarian = tested on: OVCAR-3 ovarian
OVCAR-8 ovarian = tested on: OVCAR-8 ovarian
SW-620 colon = tested on: SW-620 colon
UACC-62 melanoma = tested on: UACC-62 melanoma
SK-MEL-5 melanoma = tested on: SK-MEL-5 melanoma
UACC-257 melanoma = tested on: UACC-257 melanoma
IGROV1 ovarian = tested on: IGROV1 ovarian
MDA-MB-231 breast = tested on: MDA-MB-231 breast
UO-31 renal = tested on: UO-31 renal
NCI-H522 lung = tested on: NCI-H522 lung
HS 578T breast = tested on: HS 578T breast
MALME-3M melanoma = tested on: MALME-3M melanoma
SK-OV-3 ovarian = tested on: SK-OV-3 ovarian
PC-3 prostate = tested on: PC-3 prostate
MDA-MB-435 = tested on: MDA-MB-435
EKVX NSCLC = tested on: EKVX NSCLC
HCT-116 colon = tested on: HCT-116 colon
OVCAR-4 ovarian = tested on: OVCAR-4 ovarian
NCI-H460 lung = tested on: NCI-H460 lung
NCI/ADR-RES ovarian = tested on: NCI/ADR-RES ovarian
OVCAR-5 ovarian = tested on: OVCAR-5 ovarian
SF-539 CNS = tested on: SF-539 CNS
SNB-19 CNS = tested on: SNB-19 CNS
SR leukemia = tested on: SR leukemia
SK-MEL-2 melanoma = tested on: SK-MEL-2 melanoma
ACHN renal = tested on: ACHN renal
COLO 205 colon = tested on: COLO 205 colon
LOX IMVI melanoma = tested on: LOX IMVI melanoma
RXF 393 renal = tested on: RXF 393 renal
A498 renal = tested on: A498 renal
SF-295 CNS = tested on: SF-295 CNS
SF-268 CNS = tested on: SF-268 CNS
A549 NSCLC = tested on: A549 NSCLC
TK-10 renal = tested on: TK-10 renal
SNB-75 CNS = tested on: SNB-75 CNS
BT-549 breast = tested on: BT-549 breast
SK-MEL-28 melanoma = tested on: SK-MEL-28 melanoma
HCT-15 colon = tested on: HCT-15 colon
CAKI-1 renal = tested on: CAKI-1 renal
HCC-2998 colon = tested on: HCC-2998 colon
M14 melanoma = tested on: M14 melanoma
RPMI-8226 leukemia = tested on: RPMI-8226 leukemia
786-0 renal = tested on: 786-0 renal

Work on `CCCCCCCCCC(=O)NC(C)(C)C(=O)N1CCC[C@H]1C(=O)N[C@@H](CC(C)C)C(=O)N[C@@](C)(CC)C(=O)N[C@@H](CCC(N)=O)C(=O)N[C@H](CCC(N)=O)C(=O)NC(C)(C)C(=O)NC(C)(C)C(=O)N[C@@H](CCC(N)=O)C(=O)N[C@H](CC(C)C)C(=O)N[C@H](CO)CC(C)C` (Decanoyl-[Aib]PL[Iva]Q[dQ][Aib][Aib]Q[dL][Leu(ol)]) yielded a GI50 (SN12C renal) of 1.7 µM, a TGI (SN12C renal) of 3.17 µM and a GI50 (T-47D breast) of 2.02 µM. It also gave a TGI (T-47D breast) of 4.31 µM, a GI50 (HOP-62 NSCLC) of 1.95 µM and a TGI (HOP-62 NSCLC) of 3.8 µM. For the same compound, the GI50 (U251 CNS) was 1.72 µM, the TGI (U251 CNS) was 3.22 µM and the GI50 (NCI-H226 lung) was 1.88 µM. It also gave a TGI (NCI-H226 lung) of 3.86 µM, a GI50 (K-562 leukemia) of 2.44 µM and a GI50 (MOLT-4 leukemia) of 2.29 µM. The TGI (MOLT-4 leukemia) was 5.9 µM, the GI50 (HL-60(TB) leukemia) was 1.87 µM and the TGI (HL-60(TB) leukemia) was 3.97 µM. The GI50 (MCF7 breast) was 1.78 µM, the TGI (MCF7 breast) was 3.45 µM and the GI50 (CCRF-CEM leukemia) was 1.81 µM. For the same compound, the TGI (CCRF-CEM leukemia) was 3.6 µM, the GI50 (HT29 colon) was 2.01 µM and the TGI (HT29 colon) was 3.83 µM. It also gave a GI50 (HOP-92 NSCLC) of 1.64 µM, a TGI (HOP-92 NSCLC) of 3.14 µM and a GI50 (NCI-H23 lung) of 1.79 µM. The TGI (NCI-H23 lung) was 3.52 µM, the GI50 (DU-145 prostate) was 1.75 µM and the TGI (DU-145 prostate) was 3.13 µM. The GI50 (KM12 colon) was 1.83 µM, the TGI (KM12 colon) was 3.33 µM and the GI50 (OVCAR-3 ovarian) was 1.79 µM. It also gave a TGI (OVCAR-3 ovarian) of 3.25 µM, a GI50 (OVCAR-8 ovarian) of 1.84 µM and a TGI (OVCAR-8 ovarian) of 3.66 µM. For the same compound, the GI50 (SW-620 colon) was 1.86 µM, the TGI (SW-620 colon) was 3.46 µM and the GI50 (UACC-62 melanoma) was 1.63 µM. It also gave a TGI (UACC-62 melanoma) of 2.98 µM, a GI50 (SK-MEL-5 melanoma) of 1.74 µM and a TGI (SK-MEL-5 melanoma) of 3.17 µM. The GI50 (UACC-257 melanoma) was 1.75 µM, the TGI (UACC-257 melanoma) was 3.24 µM and the GI50 (IGROV1 ovarian) was 1.8 µM. For the same compound, the TGI (IGROV1 ovarian) was 3.36 µM, the GI50 (MDA-MB-231 breast) was 1.76 µM and the TGI (MDA-MB-231 breast) was 3.26 µM. The GI50 (UO-31 renal) was 1.6 µM, the TGI (UO-31 renal) was 2.95 µM and the GI50 (NCI-H522 lung) was 1.73 µM. It also gave a TGI (NCI-H522 lung) of 3.33 µM, a GI50 (HS 578T breast) of 1.81 µM and a TGI (HS 578T breast) of 3.51 µM. For the same compound, the GI50 (MALME-3M melanoma) was 1.51 µM, the TGI (MALME-3M melanoma) was 2.89 µM and the GI50 (SK-OV-3 ovarian) was 1.93 µM. The TGI (SK-OV-3 ovarian) was 3.8 µM, the GI50 (PC-3 prostate) was 1.71 µM and the TGI (PC-3 prostate) was 3.3 µM. For the same compound, the GI50 (MDA-MB-435) was 1.75 µM, the TGI (MDA-MB-435) was 3.16 µM and the GI50 (EKVX NSCLC) was 1.7 µM. It also gave a TGI (EKVX NSCLC) of 3.17 µM, a GI50 (HCT-116 colon) of 1.85 µM and a TGI (HCT-116 colon) of 3.49 µM. For the same compound, the GI50 (OVCAR-4 ovarian) was 2.05 µM, the TGI (OVCAR-4 ovarian) was 4.63 µM and the GI50 (NCI-H460 lung) was 1.89 µM. It also gave a TGI (NCI-H460 lung) of 3.47 µM, a GI50 (NCI/ADR-RES ovarian) of 1.83 µM and a TGI (NCI/ADR-RES ovarian) of 3.55 µM. The GI50 (OVCAR-5 ovarian) was 1.7 µM, the TGI (OVCAR-5 ovarian) was 3.07 µM and the GI50 (SF-539 CNS) was 1.72 µM. The TGI (SF-539 CNS) was 3.11 µM, the GI50 (SNB-19 CNS) was 1.7 µM and the TGI (SNB-19 CNS) was 3.1 µM. For the same compound, the GI50 (SR leukemia) was 2.25 µM, the GI50 (SK-MEL-2 melanoma) was 1.74 µM and the TGI (SK-MEL-2 melanoma) was 3.24 µM. The GI50 (ACHN renal) was 1.86 µM, the TGI (ACHN renal) was 3.6 µM and the GI50 (COLO 205 colon) was 1.86 µM. The TGI (COLO 205 colon) was 3.6 µM, the GI50 (LOX IMVI melanoma) was 1.73 µM and the TGI (LOX IMVI melanoma) was 3.29 µM. It also gave a GI50 (RXF 393 renal) of 1.93 µM, a TGI (RXF 393 renal) of 3.45 µM and a GI50 (A498 renal) of 1.98 µM. For the same compound, the TGI (A498 renal) was 3.55 µM, the GI50 (SF-295 CNS) was 1.75 µM and the TGI (SF-295 CNS) was 3.26 µM. It also gave a GI50 (SF-268 CNS) of 1.76 µM, a TGI (SF-268 CNS) of 3.31 µM and a GI50 (A549 NSCLC) of 1.86 µM. It also gave a TGI (A549 NSCLC) of 3.85 µM, a GI50 (TK-10 renal) of 1.78 µM and a TGI (TK-10 renal) of 3.26 µM. It also gave a GI50 (SNB-75 CNS) of 1.46 µM, a TGI (SNB-75 CNS) of 2.79 µM and a GI50 (BT-549 breast) of 1.85 µM. It also gave a TGI (BT-549 breast) of 3.3 µM, a GI50 (SK-MEL-28 melanoma) of 1.69 µM and a TGI (SK-MEL-28 melanoma) of 3.06 µM. The GI50 (HCT-15 colon) was 1.9 µM, the TGI (HCT-15 colon) was 3.79 µM and the GI50 (CAKI-1 renal) was 1.7 µM. For the same compound, the TGI (CAKI-1 renal) was 3.13 µM, the GI50 (HCC-2998 colon) was 1.8 µM and the TGI (HCC-2998 colon) was 3.39 µM. It also gave a GI50 (M14 melanoma) of 1.77 µM, a TGI (M14 melanoma) of 3.29 µM and a GI50 (RPMI-8226 leukemia) of 1.92 µM. For the same compound, the TGI (RPMI-8226 leukemia) was 3.95 µM, the GI50 (786-0 renal) was 1.84 µM and the TGI (786-0 renal) was 3.5 µM.
